Assay results taken from patent EP4670722A1, “PROPHYLACTIC OR AMELIORATING AGENT FOR CELL AGING” (Kyowa Pharma Chemical Co., Ltd., priority 2023, dated 2024).

Legend:
[1] = test system: GLS1; test: GLS1 expression analysis (ELISA) in Gin-1; type: cell-based; conditions: human gingival fibroblasts (Gin-1), 50 µg/mL to 1000 µg/mL, 24 hours; effect increased as content increased; Fig. 12
Method: Human gingival fibroblasts (Gin-1) were cultured in DMEM containing 10% FBS. The cultured cells were collected by trypsin treatment. Cells in a state where GLS1 was expressed without addition of the test sample were used for the test. Cells collected by trypsin treatment were seeded in a 6-well plate, and when they reached 80% confluence, DMEM containing the test sample (2'-FL and lactose) at 50 µg/mL, 200 µg/mL, or 1000 µg/mL was added, and cultured for 24 hours in a 37°C, 5% CO2 incubator. The culture supernatant was removed, the cells were washed twice with PBS, and 0.20 mL of RIPA buffer was added to extract total protein. Protein in each protein extract was quantified by the Bradford assay.
Protein extracts were collected in the same manner as in [Example 10-1 B. Human gastric undifferentiated carcinoma cells (KKLS)], [Example 10-1 C. Mouse microglial cells (BV2)], [Example 10-1 D. Human gingival fibroblasts (Gin-1)], and [Example 10-1 E. Human umbilical vein endothelial cells (HUVEC)], respectively, except that a medium same as the above-mentioned medium but not containing the test sample was used instead of the medium containing the test sample, and protein in each protein extract was quantified by the Bradford assay.
An ELISA method was performed using an antibody against GLS1 to measure the amount of GLS1 in the samples. […]

[2] = test system: laminin; test: Laminin secretion amount (ELISA) of tunicamycin-treated epidermal keratinocytes; type: cell-based, Human; conditions: HaCaT, tunicamycin 0.1 µg/mL, 50 µg/mL to 200 µg/mL, 24 hours; recovery increased as content increased; Fig. 7
Method: Human normal epidermal keratinocytes (HaCaT) were cultured using DMEM containing 10% FBS. The cultured cells were collected by trypsin treatment. The collected cells were seeded in a 24-well plate, and when they reached 100% confluence, tunicamycin was added at 0.1 µg/mL, and after 24 hours, the culture supernatant was collected. A group was also prepared in which FBS-free DMEM medium containing a test sample (2'-fucosyllactose) at 50 µg/mL, 100 µg/mL, or 200 µg/mL was added simultaneously with tunicamycin, and after 24 hours, the culture supernatant was collected. The culture supernatant was centrifuged, and the resulting supernatant was used as a sample. […] This total cell protein concentration was measured by the Bradford assay.
Human normal epidermal keratinocytes were cultured and the culture supernatant was collected in the same manner as in Example 6-1, except that tunicamycin and the test sample were not added. […] This total cell protein concentration was measured by the Bradford assay.
An Enzyme-Linked Immunosorbent Assay (ELISA) method was performed using an antibody against laminin to measure the amount of laminin in the sample. […] After stopping the reaction, the absorbance at a measurement wavelength of 450 nm was measured with a microplate reader. […]

[3] = test system: human senescent dermal fibroblasts (NB1RGB) with a PDL of 50 or more; test: Cell proliferation rate (MTT) of senescent dermal fibroblasts; type: cell-based; conditions: 50 µg/mL to 200 µg/mL, 2 days, suppression increased as content increased, Fig. 3
Method: (§1) Human normal dermal fibroblasts (NB1RGB) with a PDL of 30 or less and human senescent dermal fibroblasts (NB1RGB) with a PDL of 50 or more were each cultured using DMEM containing 10% FBS. The cultured cells were collected by trypsin treatment. The collected cells were seeded in a 96-well microplate at a concentration of 5.0 x 10^3 cells/well and cultured overnight. Thereafter, the cells were cultured for 2 days at 37°C in a medium for fibroblast proliferation (FBS-free) to which a test sample (sucrose or 2'-fucosyllactose) was added to a concentration of 50 µg/mL, 100 µg/mL,or 200 µg/mL. The medium was replaced with FBS-free DMEM medium, then 10 µL/well of 5 mg/mL 3-[4,5-dimethylthiazol-2-yl]-2,5-diphenyltetrazolium bromide (MTT) was added, and the cells were cultured at 37°C for 3 hours. […] After extraction, the absorbance of formazan (As, 492 nm) was measured with a microplate reader. […]
(§2) Human normal dermal fibroblasts with a PDL of 30 or less and human senescent fibroblasts with a PDL of 50 or more were each cultured and the absorbance of formazan was measured in the same manner as in Example 2-1, except that no test sample was added. The obtained absorbance was designated as Ab, and the cell proliferation rate represented by the above formula (1) was determined for each case of PDL of 30 or less and PDL of 50 or more.

[4] = test system: Human normal dermal fibroblasts (NB1RGB) with a PDL of 30 or less; test: Cell proliferation rate (MTT) of normal dermal fibroblasts; type: cell-based; conditions: 50 µg/mL to 200 µg/mL, 2 days, activity increased as content increased, Fig. 2
Method: as §1, §2

C[C@@H]1O[C@@H](O[C@H]2[C@H](O[C@H]3[C@H](O)[C@@H](O)C(O)O[C@@H]3CO)O[C@H](CO)[C@H](O)[C@@H]2O)[C@@H](O)[C@H](O)[C@@H]1O (stereo partly shown) [2'-FL, 2'-fucosyllactose]
GLS1 expression [1]: suppressed GLS1 expression | laminin secretion [2]: restored laminin secretion | proliferation of senescent fibroblasts (cell proliferation rate) [3]: suppressed the proliferation of senescent fibroblasts | proliferation activity of normal fibroblasts (cell proliferation rate) [4]: improved the proliferation activity of normal fibroblasts
